Patent US8394765B2, “Methods of treating obesity with two different anti-obesity agents” (Amylin Pharmaceuticals LLC, priority 2004, dated 2013)

What was measured:
[1] = 24-week randomized, double-blind, active-drug-controlled study of pramlintide and metreleptin in overweight and obese subjects (Example 8); type: in vivo, human
Description: To evaluate inter alia the safety, tolerability and effect of the combination of an amylin agonist (pramlintide) and a leptin (metreleptin) on changes in body weight, a 24-week, randomized, double-blind, active-drug-controlled, multicenter study was conducted under USFDA approved protocols. Secondary objectives of the study were the determination of the pharmacokinetics of pramlintide and leptin, waist circumference, rate of change in body weight, and patient reported outcomes including for example without limitation perception of well-being related to weight change and mood. The study enrolled overweight and obese subjects with defined BMI ([…]), with enrollment statistics as provided in Table 2. […] Subjects treated with pramlintide/metreleptin lost an average of 25 pounds from the start of the 24-week study compared with an average of 17 pounds for subjects treated with pramlintide alone.
In an initial lead-in phase, all subjects received dietary instructions and treatment with pramlintide at 180 mcg BID for two weeks, followed by pramlintide at 360 mcg BID for two weeks. Subjects who completed the 4-week lead-in period and who lost 2-8 percent body weight during this period were eligible to continue the study. The term “enrolled” (Table 2) refers to subjects (N=177) receiving at least one dose of pramlintide during the lead-in period. The term “non-randomized” refers to subjects not continuing in the study past the lead-in period. The term “evaluable” refers to subjects who completed Visit 9 (Week 16) study procedures and adequately complied with the study protocol.
After the 4-week lead-in period, for the remaining 20 weeks of the study the subjects were randomized in a 2:2:1 ratio to one of three groups with BID treatment of 1) pramlintide 360 mcg/metreleptin 5 mg (“Leptin+Pramlintide”); 2) pramlintide 360 mcg/placebo (“Pramlintide”); or 3) metreleptin 5 mg/placebo (“Leptin”).

[2] = treated test animals; e.g. provoking marked hyperlactemia followed by hyperglycemia; cited from earlier work
[3] = compared to human amylin; cited from earlier work
[4] = DIO rats, amylin and phentermine, body weight and body composition (Example 4); type: in vivo, rat
Description: The combination of amylin and catecholaminergic agonist, phentermine, were also tested for effects on changes in body weight and body composition. Phentermine is classically referred to as a catecholaminergic agonist as it actually hits NA/5-HT receptors. DIO male rats were fattened and divided into four treatment groups, as described above. Each group was implanted with subcutaneous osmotic mini-pumps and/or inserted with an oral gavage, designed to deliver vehicle, phentermine (10 mg/kg/day), amylin (100 μg/kg/day) or phentermine (10 mg/kg/day)+amylin (100 μg/kg/day) for a 14 day period. The mini-pump contained either vehicle (50% DMSO in water) or amylin while the oral gavage administered either sterile water or phentermine. Body weight was recorded daily and body composition was measured prior to and after drug treatment using NMR.

[5] = DIO (Levin) rats, amylin and CB-1 antagonist rimonabant, body weight and body composition (Example 5); type: in vivo, rat
Description: These rats were developed by Barry Levin from a line of Crl:CD®(SD)BR rats that are prone to become obese on a diet relatively high in fat and energy. They were housed individually in shoebox cages at 22 C in a 12/12-hour light dark cycle. […] Rats were habituated to oral gavage for 1 week prior to treatment. Rimonabant was administered at a range of doses (0.1, 0.3, 1.0, 3.0. 10 mg/kg/day) by oral gavage. Amylin (dissolved in 50% DMSO sterile water) or vehicle was administered by mini-pump (100 μg/kg/day). Rimonabant was always delivered just prior to lights out. Food intake and body weight were measured at 1 and 2 weeks post-treatment. Body composition was measured prior to and after drug treatment using NMR (Echo Medical Systems, Houston, Tex.). For body composition measurements, rats were briefly placed (˜1 min) in a well-ventilated plexiglass tube that was then inserted into a specialized rodent NMR machine. Rats were scanned prior to pump implantation and on the final day of the experiment. This enabled the calculation of changes in actual grams of fat and dry lean tissue (e.g., grams of body fat after treatment−grams of body fat at baseline=change in grams of body fat) and changes in % body composition for fat and dry lean tissue (e.g., % body fat after treatment−% body fat at baseline=change in % body fat).

[6] = DIO rats, amylin and PYY(3-36), body weight and body composition (Example 7); type: in vivo, rat
Description: Each group was implanted with subcutaneous osmotic mini-pumps, designed to deliver vehicle, PYY(3-36) (1000 μg/kg/day), amylin (100 μg/kg/day) or PYY(3-36) (1000 μg/kg/day)+amylin (100 μg/kg/day) for a 14 day period. PYY(3-36) was administered by mini-pump at a range of doses (100, 200, 400, 800, 1000 μg/kg/day). Amylin 100 μg/kg/day (dissolved in 50% DMSO sterile water), PYY(3-36) (dissolved in 50% DMSO sterile water) or vehicle was administered by mini-pump. Food intake and body weight was recorded daily. Body composition was measured prior to and after drug treatment using NMR (Echo Medical Systems, Houston, Tex.). For body composition measurements, rats were briefly placed (˜1 min) in a well-ventilated plexiglass tube that was then inserted into a specialized rodent NMR machine. Rats were scanned prior to pump implantation and on the final day of the experiment. This enabled the calculation of changes in actual grams of fat and dry lean tissue (e.g., grams of body fat after treatment−grams of body fat at baseline […]) and changes in % body composition for fat and dry lean tissue (e.g., % body fat after treatment−% body fat at baseline=change in % body fat).

[7] = DIO rats, amylin and exendin-4 analog, body weight and body composition (Example 6); type: in vivo, rat
Description: […]. Prior to drug administration rats had typically attained a mean body weight of 500 g Exendin-4 analog was administered by minipump at a range of doses (0.3, 1, 3, 10, 30 μg/kg/day). Amylin (dissolved in 50% DMSO in water) or vehicle was administered by mini-pump (100 μg/kg/day). Body weight and food intake was recorded daily. Body composition was measured prior to and after drug treatment using NMR (Echo Medical Systems, Houston, Tex.). For body composition measurements, rats were briefly placed (˜1 min) in a well-ventilated plexiglass tube that was then inserted into a specialized rodent NMR machine. Rats were scanned prior to pump implantation and on the final day of the experiment. This enabled the calculation of changes in actual grams of fat and dry lean tissue (e.g., grams of body fat after treatment−grams of body fat at baseline=change in grams of body fat) and changes in % body composition for fat and dry lean tissue (e.g., % body fat after treatment−% body fat at baseline=change in % body fat).

[8] = DIO rats, amylin and sibutramine, body weight and body composition (Example 4); type: in vivo, rat
Description: Rat amylin was dissolved in 50% DMSO in sterile water and sibutramine was dissolved in sterile water. Each group was implanted with subcutaneous osmotic mini-pumps designed to deliver vehicle, sibutramine (3 mg/kg/day) or amylin (100 μg/kg/day) for a 14 day period. Body weight and food intake were recorded daily. Body composition was measured prior to and after drug treatment using NMR (Echo Medical Systems, Houston, Tex.). For body composition measurements, rats were briefly placed (˜1 min) in a well-ventilated plexiglass tube that was then inserted into a specialized rodent NMR machine. Rats were scanned prior to pump implantation and on the final day of the experiment. This enabled the calculation of changes in actual grams of fat and dry lean tissue (e.g., grams of body fat after treatment−grams of body fat at baseline=change in grams of body fat) and changes in % body composition for fat and dry lean tissue (e.g., % body fat after treatment−% body fat at baseline=change in % body fat).

[9] = 4-week pramlintide lead-in, arm of later randomization

For metreleptin, the “weight reduction effect toward the end of the study (late rate, in words)” value ([1]; 12-20 weeks, FIG. 24) was “approached a late rate of zero”.
In the case of “^28Pro-h-amylin (KCNTATCATQRLANFLVHSSNNFGAILPSTNVGSNTY)”, the “amylin activity in vivo” value [2] is listed as “show amylin activity in vivo”.
For “^25Pro^26Val^28,29 Pro-h-amylin (KCNTATCATQRLANFLVHSSNNFGPVLPPTNVGSNTY)”, the “solubility and stability characteristics” value [3] is listed as “more desirable solubility and stability characteristics”.
With CC(C)(N)Cc1ccccc1 [phentermine] the “changes in body fat (fat mass)” value ([4]; after two weeks, FIG. 11B) was “modest amount of fat mass loss”, the “changes in body protein (lean mass)” value ([4]; after two weeks, FIG. 11C) was “unchanged or tended to be lost” and the “vehicle-corrected decrease in percent body weight” value ([4]; two weeks, phentermine 10 mg/kg/day oral gavage, amylin 100 μg/kg/day, FIG. 11A) was ~5%.
With Cc1c(C(=O)NN2CCCCC2)nn(-c2ccc(Cl)cc2Cl)c1-c1ccc(Cl)cc1 [rimonabant] the “changes in body fat (fat mass)” value ([5]; after two weeks, FIG. 12B) was “Fat mass loss was evident”, the “changes in body protein (lean mass)” value ([5]; after two weeks, FIG. 12C) was “relatively equivalent increase in lean (protein) mass” and the “vehicle-corrected decrease in percent body weight” value ([5]; two weeks, rimonabant 3 mg/kg/day oral gavage, amylin 100 μg/kg/day, FIG. 12A) was ~4%.
With PYY(3-36) the “changes in body fat (fat mass loss)” value ([6]; after two weeks, order PYY(3-36) alone, amylin alone, combination, FIG. 16B) was “Increasing amount of fat mass loss” and the “vehicle-corrected decrease in percent body weight” value ([6]; two weeks, PYY(3-36) 1000 μg/kg/day, amylin 100 μg/kg/day, FIG. 16A) was ~9%.
In the case of ^14Leu-exendin-4 [Exendin-4 analog], the “changes in body fat (fat mass)” value ([7]; after two weeks, FIG. 15B) is reported as “Fat mass loss was evident”, the “changes in body protein (lean mass)” value ([7]; after two weeks, FIG. 15C) is reported as “relatively equivalent increase in lean (protein) mass” and the “vehicle-corrected decrease in percent body weight” value ([7]; two weeks, exendin-4 analog 10 μg/kg/day, amylin 100 μg/kg/day, FIG. 15A) is reported as ~6%.
For CC[C@H](C)[C@H](NC(=O)[C@@H]1CCCN1C(=O)CNC(=O)[C@H](Cc1ccccc1)NC(=O)[C@H](CC(N)=O)NC(=O)[C@H](CC(N)=O)NC(=O)[C@H](CO)NC(=O)[C@H](CO)NC(=O)[C@H](Cc1c[nH]cn1)NC(=O)[C@@H](NC(=O)[C@H](CC(C)C)NC(=O)[C@H](Cc1ccccc1)NC(=O)[C@H](CC(N)=O)NC(=O)[C@H](C)NC(=O)[C@H](CC(C)C)NC(=O)[C@H](CCCNC(=N)N)NC(=O)[C@H](CCC(N)=O)NC(=O)[C@@H](NC(=O)[C@H](C)NC(=O)[C@@H]1CSSC[C@H](NC(=O)[C@@H](N)CCCCN)C(=O)N[C@@H](CC(N)=O)C(=O)N[C@@H]([C@@H](C)O)C(=O)N[C@@H](C)C(=O)N[C@@H]([C@@H](C)O)C(=O)N1)[C@@H](C)O)C(C)C)C(=O)N[C@@H](CC(C)C)C(=O)N1CCC[C@H]1C(=O)N1CCC[C@H]1C(=O)N[C@H](C(=O)N[C@@H](CC(N)=O)C(=O)N[C@H](C(=O)NCC(=O)N[C@@H](CO)C(=O)N[C@@H](CC(N)=O)C(=O)N[C@H](C(=O)N[C@@H](Cc1ccc(O)cc1)C(N)=O)[C@@H](C)O)C(C)C)[C@@H](C)O [pramlintide], the “rate of change in body weight, early rate” value ([1]; 0-12 weeks, evaluable population, FIG. 24) was −0.23±0.04 kg/week, the “Mean Change in Body Weight” value ([1]; 4-week lead-in period in which all subjects received pramlintide (180 then 360 mcg BID), arm of later randomization) was -3.65 kg and the “% Weight Loss During Lead-in <5% (share of subjects)” value [1, 9] was 77%. For the same molecule, the “% Weight Loss During Lead-in ≧5% (share of subjects)” value [1, 9] was 23%, the “rate of change in body weight, late rate” value ([1]; 12-20 weeks, evaluable population, FIG. 24) was −0.02±0.04 kg/week and the “weight reduction effect toward the end of the study (late rate, in words)” value ([1]; 12-20 weeks, FIG. 24) was “approached a late rate of zero”. The “course of weight loss towards the end of the study” value ([1]; human subjects, 24-week study) was “weight had stabilized towards the end of the 24-week study”, the “body weight reduction on average” value ([1]; human subjects, end of 24-week study, pramlintide 360 mcg BID, metreleptin 5 mg BID, p<0.001) was 8.4% and the “average weight lost from the start of the 24-week study” value ([1]; human subjects, pramlintide 360 mcg BID, metreleptin 5 mg BID) was 17 pounds.
In the case of CC(C)CC(N(C)C)C1(c2ccc(Cl)cc2)CCC1 (stereo not drawn) [sibutramine], the “changes in body fat (fat mass)” value ([8]; after two weeks, FIG. 10B) is reported as “Fat mass loss was evident”, the “changes in body protein (lean mass)” value ([8]; after two weeks, FIG. 10C) is reported as “relatively unchanged” and the “vehicle-corrected decrease in percent body weight” value ([8]; two weeks, sibutramine 3 mg/kg/day, amylin 100 μg/kg/day, FIG. 10A) is reported as ~6%.
For “^18Arg^25,28Pro-h-amylin (KCNTATCATQRLANFLVRSSNNFGPILPSTNVGSNTY)”, the “solubility and stability characteristics” value [3] is given as “more desirable solubility and stability characteristics” and the “amylin activity in vivo” value [2] is given as “show amylin activity in vivo”.
In the case of “des-^1Lys^18Arg^25,28Pro-h-amylin (CNTATCATQRLANFLVHRSNNFGPILPSTNVGSNTY)”, the “amylin activity in vivo” value [2] is listed as “show amylin activity in vivo”.
For “des-^1Lys-h-amylin (CNTATCATQRLANFLVHSSNNFGAILSSTNVGSNTY)”, the “amylin activity in vivo” value [2] is given as “show amylin activity in vivo”.
